Each structure is given as a SMILES string.

In the first test the test system is U46619-induced broncho-constriction. In words: Bronchodilatation in vivo: U46619-induced bronchoconstriction in anaesthetised guinea-pigs. The note with it: 10 μmol/kg i.v. bolus; anaesthetised male Dunkin Hartley guinea-pigs; U46619 infused i.v. 2.5 nmol/min. More on the design: species or system guinea-pig. How it is done: Male guinea-pigs of the Dunkin Hartley strain (500-600 g) were anaesthetised with Sagatal (pentobarbital sodium) (60 mg/kg). Airway resistance was measured using a modification of the classical Konzett-Rossler technique (Versuchsanordnung zu Untersuchungen an der Bronchialmuskulatur. Naunyn-Schmiedebergs Arch. Exp. Path. Pharmak., vol 195: pp 71-74, (1940)). U46619 (9,11-methanoepoxy-PGH2) was infused i.v. at a rate of 2.5 nmol/min, this produced a steady state of broncho-constriction (approximately 120% increase from basal airway resistance). The compound under test was administered by i.v. bolus injection, and the subsequent peak inhibition of bronchoconstriction recorded.
Administration of the compound of Example 1 (10 μmol/kg) reduced the U46619-induced broncho-constriction by 34%.
Turning to `CCCOc1ccccc1-c1nc2ccccc2c(=O)[nH]1` [Example 1, 2-(2-Propoxyphenyl)quinazolin-4(3H)-one], the “reduction of U46619-induced broncho-constriction (peak inhibition)” value turned out to be 34%.

The next test has as its target calmodulin insensitive cyclic GMP phosphodiesterase. In words: Phosphodiesterase activity: inhibition of calmodulin insensitive cyclic GMP phosphodiesterase. The format is biochemical. The note with it: procedure of European Patent Application No. 293063; read-out: IC50 (concentration of inhibitor required for 50% inhibition of enzyme activity). As to the method:
The activity of the compounds of the present invention as inhibitors of a calmodulin insensitive cyclic GMP phosphodiesterase was measured using the procedure described in European Patent Application No. 293063. […] The compounds of the present invention have the advantage that they are selective in not inhibiting cyclic AMP phosphodiesterase (type III).
`CCCOc1ccccc1-c1nc2cc(SC)ccc2c(=O)[nH]1` [Example 2, 7-Methylthio-2-(2-propoxyphenyl)quinazolin-4(3H)-one]: the IC50 is 0.71 to 5.3 µM.

As for `CCCOc1ccccc1-c1nc2cc([N+](=O)[O-])ccc2c(=O)[nH]1` [Example 3, 7-Nitro-2-(2-Propoxyphenyl)-4(3H)-quinazolinone], the IC50 was 0.71 to 5.3 µM.

`CCCOc1ccccc1-c1nc2cc(N)ccc2c(=O)[nH]1` [Example 4, 7-Amino-2-(2-Propoxyphenyl)-4(3H)-quinazolinone]: the IC50 was 0.71 to 5.3 µM.

For the compound `CCCOc1ccccc1-c1nc2ccccc2c(=O)[nH]1` [Example 1, 2-(2-Propoxyphenyl)quinazolin-4(3H)-one], the IC50 is 0.71 to 5.3 µM.

For `CCCOc1ccccc1-c1nc2cc(NC)ccc2c(=O)[nH]1` [Example 5, 7-Methylamino-2-(2-Propoxyphenyl)-4(3H)-quinazolinone], the IC50 fell in the range of 0.71 to 5.3 µM.

These data come from patent US5147875A, “2-(substituted phenyl)-4-oxo-quinazolines” (Sanshin Kogyo Kabishiki Kaisha, priority 1988, dated 1992).
